From patent US20060165785A1, “Method of chemically stabilizing pharmaceutical formulations with cholesterol” (priority 2005, published 2006)

Experiment: Chemical stability of composite particles in lactose carrier blend stored at 60° C. and 75% relative humidity for seven days
Assay type: physicochemical
Method: A 20 gram blend of 5% cholesterol coated salmeterol particles was prepared with a concetration of 0.8% w/w salmeterol base in alpha lactose monohydrate. Approximately 10 grams of alpha lactose monohydrate with target particle size of 65-85μm (Borcula, The Netherlands) was weighed into the bottom of a 120 mL amber glass jar. 0.247g of 5% cholesterol coated salmeterol HNA was added on top of the lactose and 9.77 g of lactose was added on top of the mixture. The mixture was blended using a Turbula T2F blender at 96 RPM for 5 minutes. The jar was removed from the blender and excess blend was tapped from the top of the jar. One additional blending cycle was performed for 5 minutes at 96 RPM to complete the process.
Samples of particles prepared in accordance with Example 2 above were stored in controlled atmospheric conditions of 60° C. and 75% relative humidity for seven days. The percentage of active ingredient was taken at day 0 and day 7. […] When cholesterol was included, the degradation was reduced to less than 2%.
It has been observed that micronized SX degrades at 60 ° C. and 75% relative humidity (RH) conditions when in a neat blend with lactose.

Structure (SMILES): OCc1cc(C(O)CNCCCCCCOCCCCc2ccccc2)ccc1O (stereo not drawn) [Micronized SX, salmeterol xinafoate]
- % Impurities of Composite Particles in 0.8% Salmeterol Base/Lactose Blend, 7 Days at 60° C. and 75% RH (0.8% salmeterol base/lactose blend, 7 days at 60° C. and 75% RH): 7.4%
- % Impurities of Composite Particles in 0.8% Salmeterol Base/Lactose Blend, 7 Days at 60° C. and 75% RH (0.8% salmeterol base/lactose blend, 7 days at 60° C. and 75% RH, listed as MIC SX from alternate study): 8.0%
- % Impurities of Composite Particles in 0.8% Salmeterol Base/Lactose Blend, Initial (0.8% salmeterol base/lactose blend, initial (day 0)): 0.5%
- drop in the amount of SX present in the formulation (degradation) at day 7 (formulation with carrier, 60° C. and 75% relative humidity, day 7 vs day 0): 7%

Structure (SMILES): NS(=O)(=O)c1cccc(CCCCOCCCCCCNC[C@H](O)c2ccc(O)c(CO)c2)c1 [Micronized GW597901M, 3-(4-{[6-({(2R)-2-hydroxy-2-[4-hydroxy-3-(hydroxymethyl)phenyl]ethyl}amino)hexyl]oxy}-butyl)benzene-sulfonamide]
- % Impurities of Composite Particles in 0.4% GW597901M Base/Lactose Blend, 7 Days at 60° C. and 75% RH (0.4% GW597901M base/lactose blend, 7 days at 60° C. and 75% RH): 10.0%
- % Impurities of Composite Particles in 0.4% GW597901M Base/Lactose Blend, Initial (0.4% GW597901M base/lactose blend, initial): 3.9%
